Measured values taken from article PMC10679740, “Role of peptide–cell surface interactions in cosmetic peptide application” (Frontiers in Pharmacology, 2023).
Counter-ions that a name gives are not always drawn. Like-named read-outs stand apart in the source and are kept apart here. Where a SMILES comes first, the peptide text is derived from it. Where no end group is shown, it is not given here.

Tests used:
[1] = In vitro skin permeation test, Franz-type diffusion cells
Method: The transdermal delivery of GHK and RGD-GHK was measured through the porcine skin. Permeation experiment was carried out for 24 h at 37 °C with Franz-type diffusion cells. Peptides in collected receptor solutions and skin retention were analyzed by HPLC. […] To further test whether the incorporation of a targeting motif could enhance the binding of chimeric peptides in vivo, we used smearing FITC-peptides at the mouse back for 24 h and tracked the peptide location of the skin slices by fluorescent microscopy.

[2] = tested on: HaCaT; test: Cell viability, CCK-8 assay; conditions: 2 h incubation
Method: (§2) Cells (1 × 10^4 cells per well) were seeded in a 96-well plate to reach approximately 80% confluence. Wells filled with DMEM alone served as positive controls (PCs). The culture medium of sample groups was replaced either by 100 μL of H2O2 or naked/FITC-labeled peptide solutions at different concentrations for a certain time of incubation, and non-treatment wells acted as negative controls (NCs). Then, the plate solutions were substituted with 100 μL of 10% CCK-8 solution per well and incubated for another 2 h, followed by an absorbance reading taken at 450 nm. The cell survival was determined according to the following formula: cell viability (%) = (ODsample − ODpc)/(ODnc − ODpc) × 100%.

[3] = tested on: HaCaT cells; test: Release of lactate dehydrogenase after H2O2 damage; type: cell-based, human; conditions: 800 μM H2O2 for 2 h, then fresh medium 18 h, no peptide
Method: Lactate dehydrogenase (LDH) activity of the cellular culture was evaluated using an LDH release assay kit (Beyotime). Cells (1 × 10^5 cells per well) were cultured in a 24-well plate for 24 h to reach approximately 80% confluence and then treated either with peptide solution or peptide-free DMEM (positive control, PC). After 4 h incubation, both the peptide solution and peptide-free culture medium were replaced with 250 μL of 800 µM H2O2 and incubated for another 2 h. Then, the cells were incubated with 500 µL of the fresh medium instead of H2O2 for 18 h. Then, 200 µL of the supernatant alone was harvested and mixed with 20 µL of the releasing agent, while the PC medium together with cells was incubated with the equivalent releasing agent. A measure of 200 μL of DMEM alone mixed with 20 µL of the releasing agent was used as a negative control (NC). Then, the solution was incubated at 37°C and 5% CO2 for 1 h and centrifuged at 1,000 rpm for 4 min. A measure of 40 μL suspension per well was pipetted into a 96-well plate and mixed with 20 µL of fresh LDH working solution that was prepared according to the manufacturer’s protocol. The plate was briefly vortexed in the dark for 30 min, and the OD values were measured at 490 nm wavelength. LDH release (%) was expressed via the following equation: LDH (%) = (ODsample − ODnc)/(ODpc − ODnc) × 100%.

[4] = tested on: HaCaT; test: Cell apoptosis assay (Annexin V-FITC/PI, FCM); type: cell-based, human; conditions: with or without peptide 200 μg/mL 4 h, 800 μM H2O2 2 h, medium 18 h, Figure 4E/G
Method: The percentage of early-stage apoptosis and late-stage apoptosis and necrosis of cells induced by H2O2, with or without peptide addition, were determined using an Annexin V-FITC/PI double-staining assay kit (Beyotime). Cells (1×10^5 cells per well) were seeded in a 24-well plate, pretreated with or without peptide solutions, and incubated for 4 h. The peptide solution or culture medium was replaced with 800 μM of H2O2 solution and was incubated for 2 h at 37°C. Then, the cells were incubated only with the complete medium for another 18 h. Non-treated groups were taken as controls. Suspended medium (200 µL) and trypsin-disassociated cells were collected and centrifuged at 1,000 rpm for 4 min. The precipitate was resuspended in binding buffer (195 µL) plus Annexin V-FITC (5 µL) and incubated for 5 min, followed by 10-min staining of 10 µL propidium iodide (PI). The non-staining sample was used as a reference. After a gentle mix at room temperature and a dark environment, the ratio of cell death was detected via flow cytometry (FCM). […] The free dye was inclined to bind to DNA in the nucleus and emitted strong green fluorescence when DEVD dye was broken down by caspase-3. The fluorescence intensity was measured by FCM, which represented the activity of caspase-3.

[5] = tested on: HFF-1; test: Cell viability, CCK-8 assay; conditions: HFF-1, 2 h incubation
Method: as §2

[6] = target: T1, Human neutrophil elastase (Homo sapiens, UniProt P08246); test: Assay of elastase activity (pNA substrate, OD 405 nm); type: biochemical; conditions: 2.5 U/mL elastase, 37°C, 2 h time point; for elastase inhibition rate: peptide 200 μg/mL, 5 min preheating
T1 construct: purchased Yuanye Bio Co. (Shanghai)
T1 sequence (P08246 30-267): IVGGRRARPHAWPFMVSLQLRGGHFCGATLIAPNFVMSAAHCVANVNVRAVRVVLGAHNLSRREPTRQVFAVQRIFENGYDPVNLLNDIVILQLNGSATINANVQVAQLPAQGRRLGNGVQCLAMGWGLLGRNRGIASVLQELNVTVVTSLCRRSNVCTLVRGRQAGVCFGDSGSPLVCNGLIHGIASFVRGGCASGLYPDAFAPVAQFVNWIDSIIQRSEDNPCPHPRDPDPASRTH
Method: N-Methoxysuccinyl-ala-ala-pro-val-p-nitroanilide (CAS: 70967-90-7) was bought from Sigma Chemical Co. (St. Louis, United States). Sivelestat sodium salt hydrate (S7198, CAS: 201677-61-4) was purchased from Meilun Co. (Dalian). Human neutrophil elastase (30 U/mg) was obtained from Yuanye Bio Co. (Shanghai). p-Nitroanilide (pNA, CAS: […]) was bought from Aladdin Co. (Shanghai). All other chemicals were of analytical grade and purchased from Sigma.
The stock solution (0.1 mg/mL pNA) was prepared in 10% DMSO. The standard curve of pNA was made using the different volumes of stock (200, 150, 100, 50, 30, 20, 10, 5, and 1 μL) mixed with 10% DMSO to reach a final volume of 200 μL. The optical density (OD) of each sample was measured at a wavelength of 405 nm.
Substrates were dissolved in 10% DMSO to form a final concentration of 100 μM. A measure of 100 μL of different concentrations (10, 5, 2.5, 1.25, 0.625, and 0.3125 U/mL) of elastase solution in 10% DMSO was preheated at 37°C for 5 min, and 100 μL of substrate solution was added to start the reaction at 37°C. The absorbance at 405 nm was monitored at 5-min intervals up to a recording time of 2 h at 37°C. A measure of 200 μL of 10% DMSO was taken as a blank control.
A measure of 90 μL of 2.5 U/mL elastase solution together with 10 μL of the sample at a certain concentration was preheated at 37°C for 5 min, and then 100 μL of the substrate was added to initiate a 120 min-reaction at 37°C. The OD was read at 405 nm. A measure of 200 μL of 10% DMSO was used as a blank control; 10 μL of Sivelestat solution at 10 mM was prepared as a positive control; and 10 μL of PBS was added as a negative control that represented the maximum enzyme activity. The inhibition rate of elastase was calculated according to the following formula: inhibition (%) = [1 − (ODsample − ODblank)/(ODneg − ODblank)] × 100%.

[7] = tested on: COL-1 of the human fibroblasts HFF-1; test: Immunofluorescence staining of COL-1; type: cell-based; conditions: HFF-1, pretreatment 4 h (RGD-GHK 200 μg/mL), 400 µM H2O2 2 h, fresh medium 20 h
Method: (§1) HFF-1 cells (1.5 × 10^5 cells per well) or mouse embryonic fibroblasts (NIH3T3) were grown on sterile cell slides for 24 h till 80% confluence. A measure of 200 μg/mL of RGD-GHK and GHK solutions was prepared with serum-free DMEM, and the cells were treated with the solutions for 4 h. Then, the solutions were replaced with 400 µM H2O2 and incubated for another 2 h. Then, the fresh culture medium was added to the cells and incubated for another 20 h. Pretreatment without peptides was used as a negative control, while treatment with an anti-aging peptide, acetyl hexapeptide-8 (Wrinklend), was taken as a positive control. The slides were washed three times with PBS, followed by fixation in 500 µL of 4% paraformaldehyde for 15 min at room temperature. After washing with PBS another three times, the cells were permeabilized with 0.5% Triton X-100 for 15 min and washed with PBS repeatedly. The cells were blocked using 1% BSA for 1 h to eliminate non-specific binding. Samples were incubated at 4°C overnight with 100 µL of rabbit monoclonal antibody against type I collagen (COL1A1, 1:100 dilution, CST). […] Then, a fluorescent anti-quenching agent was applied to seal off the slips for 5 min, and the slips were observed using an upright fluorescence microscope.

[8] = tested on: COL-1 of mouse embryonic fibroblasts NIH3T3; test: Immunofluorescence staining of COL-1; type: cell-based; conditions: NIH3T3, pretreatment 4 h (RGD-GHK 200 μg/mL), 400 µM H2O2 2 h, fresh medium 20 h
Method: as §1

[9] = tested on: mouse red blood cells; conditions: 2 mg/mL peptide, 5% (v/v) mouse red blood cells in PBS, 37°C, 1 h, OD 540 nm; repeated five times
Method: The blood compatibility of peptides was assessed using mouse red blood cells. The procedure involved obtaining red blood cells by centrifuging mouse blood at 2,000 rpm for 5 min, followed by washing them with PBS three times. The red blood cells were then diluted to a final concentration of 5% (v/v). Then, 2 mg/mL of peptides were added to 1 mL of the red blood cell suspension, and the mixture was incubated at 37°C for 1 h. After incubation, the suspension was centrifuged at 2000 rpm for 5 min, and the supernatant was measured at 540 nm using a microplate reader. The positive control consisted of 0.1% Triton X-100, while PBS served as a negative control. […] The hemolysis percentage was calculated using the following formula: hemolysis (%) = [(ODsample −ODnc)/(ODpc − ODnc)] × 100%.

[10] = tested on: chymotrypsin; test: Proteolytic stability assay; type: in vitro ADME; conditions: peptide 1 mg/mL, chymotrypsin 1 mg/mL, 37°C, 0, 1, 2, 4, 8, 16 h (Figure S3: 0-8 h); remaining peptide by C18 RP-HPLC, 220 nm
Method: To evaluate the proteolytic stability of peptides against chymotrypsin, the peptides were dissolved to 1 mg/mL and incubated with chymotrypsin (1 mg/mL) at 37°C for different times (0, 1, 2, 4, 8, and 16 h). Afterward, the remaining peptides in the samples were analyzed by C18 reversed-phase high-performance liquid chromatography (HPLC) and detected at 220 nm. The mobile phase of HPLC was a mixture of acetonitrile and deionized water containing 0.1% trifluoroacetic acid.

[11] = porcine skin, Franz-type diffusion cells, 24 h, 37 °C, HPLC

NCCCC[C@H](NC(=O)[C@H](Cc1cnc[nH]1)NC(=O)CN)C(=O)O [GHK, tripeptide-1, reference compound] (H-Gly-His-Lys-OH)
peptide detected in the receptor cell [1]: ~0.5%
peptide detected in the skin (skin retention) [1]: 2.7%

OO [H2O2]
concentration with apparent cytotoxic effect [2]: 1,600 μM
LDH leakage [3]: over 37%
ratio of early apoptosis [4]: 28%
concentration with obvious cytotoxicity [5]: 800 µM

CC(C)(C)C(=O)Oc1ccc(S(=O)(=O)Nc2ccccc2C(=O)NCC(=O)O)cc1 [Sivelestat, Sivelestat sodium salt hydrate, reference compound]
inhibition at 250 µM ([6]; 250 μM of Sivelestat (positive control), read-out: elastase inhibition rate): ~65%

RKQRRERGHK [sOtx2-GHK]
elastase inhibition rate [6]: ~20%

acetyl hexapeptide-8 [Wrinklend]
COL-1 expression (immunofluorescence) [7]: significantly suppressed COL-1 degradation
COL-1 expression (immunofluorescence) [8]: significantly suppressed COL-1 degradation

RGDGHK [RGD-GHK]
elastase inhibition rate [6]: approximately 25%
peptide detected in the receptor cell [1, 11]: approximately 5%
peptide detected in the skin (skin retention) [1, 11]: 5%
hemolysis (RBCs lysed) [9]: less than 1%
proteolytic stability against chymotrypsin, compared with GHK [10]: no significant difference in the proteolytic stability
